ChEMBL document CHEMBL1201862, “PubChem BioAssay data set” (2004)
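Step 1: Grow cells in 96-well plates. Step 2: Expose to compound for 48 hours at 5 concentrations. Step 3: Interpolate endpoints linearly; if unreached, use highest concentration. GI50 marks 50% less growth.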 The source made the active and inactive calls. Rule as the data show it: active = GI50 up to about 1.1 µM and inactive = higher.

Key:
Assay in all cases: DTP human tumour cell line panel, 48 h
NCI-H460 = system: NCI-H460
CAKI-1 = system: CAKI-1
IGROV-1 = system: IGROV-1
M14 = system: M14
HCC 2998 = system: HCC 2998
786-0 = system: 786-0
COLO 205 = system: COLO 205
SK-MEL-2 = system: SK-MEL-2
KM12 = system: KM12
HL-60 = system: HL-60
NCI-H522 = system: NCI-H522
HCT-15 = system: HCT-15
SN12C = system: SN12C
RXF 393 = system: RXF 393
SW-620 = system: SW-620
SNB-19 = system: SNB-19
MOLT-4 = system: MOLT-4
OVCAR-5 = system: OVCAR-5

Compound | GI50 (NCI-H460) | GI50 (CAKI-1) | GI50 (IGROV-1) | GI50 (M14) | GI50 (HCC 2998) | GI50 (786-0) | GI50 (COLO 205) | GI50 (SK-MEL-2) | GI50 (KM12) | GI50 (HL-60) | GI50 (NCI-H522) | GI50 (HCT-15) [µM] | GI50 (SN12C) | GI50 (RXF 393) | GI50 (SW-620) | GI50 (SNB-19) | GI50 (MOLT-4) | GI50 (OVCAR-5)
[O-][Cl+3]([O-])([O-])O.c1ccc(/N=c2\snc(-c3ccccc3)s2)cc1 | > 100 µM (inactive) | > 100 µM (inactive) | > 100 µM (inactive) | > 100 µM (inactive) | > 100 µM (inactive) | > 100 µM (inactive) | > 100 µM (inactive) | > 100 µM (inactive) | > 100 µM (inactive) | > 100 µM (inactive) | > 100 µM (inactive) | > 100 | > 100 µM (inactive) | > 100 µM (inactive) | > 100 µM (inactive) | > 100 µM (inactive) | > 100 µM (inactive) | 
N#C[C@]12CC3(CC[C@H]1CC1(C2)OCCO1)OCCO3 | > 100 µM (inactive) | > 100 µM (inactive) | > 100 µM (inactive) | > 100 µM (inactive) | > 100 µM (inactive) | > 100 µM (inactive) | > 100 µM (inactive) | > 100 µM (inactive) | > 100 µM (inactive) | > 100 µM (inactive) | > 100 µM (inactive) | > 100 | > 100 µM (inactive) | > 100 µM (inactive) | > 100 µM (inactive) | > 100 µM (inactive) | > 100 µM (inactive) | 
Cc1ccc(S(=O)(=O)Nc2cccc(C)c2C)cc1 | 46.6 µM (inactive) |  | 82.4 µM (inactive) | 37.9 µM (inactive) | > 100 µM (inactive) | > 100 µM (inactive) | 59.7 µM (inactive) |  | 52.7 µM (inactive) | 32.2 µM (inactive) |  | 41.1 | 55.1 µM (inactive) | 19 µM (inactive) | 86.7 µM (inactive) | > 100 µM (inactive) | 45.5 µM (inactive) | 57.7 µM (inactive)
COC(=O)c1c(O)ccc(O)c1C(C(C)=O)C(C)=O | > 100 µM (inactive) | > 100 µM (inactive) | > 100 µM (inactive) | > 100 µM (inactive) | > 100 µM (inactive) | > 100 µM (inactive) | > 100 µM (inactive) | > 100 µM (inactive) | > 100 µM (inactive) | > 100 µM (inactive) | 45.9 µM (inactive) | > 100 | > 100 µM (inactive) | > 100 µM (inactive) | > 100 µM (inactive) | > 100 µM (inactive) | > 100 µM (inactive) | 
O=C1NC(=S)NC(=O)C1=Cc1ccc[nH]1 | 8.11 µM (inactive) | 11.2 µM (inactive) | 19.6 µM (inactive) | 21 µM (inactive) | 11.8 µM (inactive) | 10.6 µM (inactive) | 12.2 µM (inactive) | 19.7 µM (inactive) | 3.48 µM (inactive) | 5.27 µM (inactive) | 1.87 µM (inactive) | 2.87 | 10.6 µM (inactive) | 2.2 µM (inactive) | 4.81 µM (inactive) | 25.8 µM (inactive) | 16.2 µM (inactive) | 23.2 µM (inactive)
Oc1c(Cl)c2nccnc2c2ccccc12 | > 100 µM (inactive) |  | > 100 µM (inactive) | > 100 µM (inactive) | > 100 µM (inactive) | > 100 µM (inactive) | > 100 µM (inactive) | > 100 µM (inactive) | > 100 µM (inactive) | > 100 µM (inactive) | > 100 µM (inactive) | > 100 | > 100 µM (inactive) | > 100 µM (inactive) | > 100 µM (inactive) |  | > 100 µM (inactive) | > 100 µM (inactive)
Cc1[nH]c2ccccc2c1C(=O)CC1(O)C(=O)Nc2c(Cl)cc(Cl)cc21 (centres undefined) | 48.9 µM (inactive) | 40.8 µM (inactive) | 53.1 µM (inactive) | 21.5 µM (inactive) | 51.6 µM (inactive) | 26.8 µM (inactive) | 30.1 µM (inactive) | 28.6 µM (inactive) | 61.9 µM (inactive) | 14.6 µM (inactive) | 16.9 µM (inactive) | 40.5 | 24.8 µM (inactive) | 22.2 µM (inactive) | 22.2 µM (inactive) | 41.3 µM (inactive) | 22.1 µM (inactive) | 24 µM (inactive)
CC1=C(C(=O)Nc2ccccc2C)C(c2ccccc2C)C(C(=O)Nc2ccccc2C)=C(C)N1 | 22.6 µM (inactive) |  | 18.5 µM (inactive) |  | 18.5 µM (inactive) | 17.6 µM (inactive) | 24.3 µM (inactive) | 18.7 µM (inactive) | 18.4 µM (inactive) | 17 µM (inactive) | 14.8 µM (inactive) | 18.7 | 18 µM (inactive) | 12.3 µM (inactive) | 18.1 µM (inactive) | 22.6 µM (inactive) | > 10 µM (inactive) | 23.3 µM (inactive)
